Drawing on ChEMBL document CHEMBL4825673, “Total and Semisyntheses of Polymyxin Analogues with 2-Thr or 10-Thr Modifications to Decipher the Structure-Activity Relationship and Improve the Antibacterial Activity” (J Med Chem, 2021), this text covers MIC for 18 molecules.

Common to all, as to type: functional
Holding throughout (details): read-out: MIC100

One test relates to Acinetobacter baumannii. Nature of the test: Antibacterial activity against Acinetobacter baumannii assessed as inhibition of bacterial growth incubated for 24 hrs by broth microdilution method.
Another test deals with Moraxella catarrhalis. Put plainly: Antibacterial activity against Moraxella catarrhalis assessed as inhibition of bacterial growth incubated for 24 hrs by broth microdilution method.
Test [1] deals with Pseudomonas aeruginosa. Nature of the test: Antibacterial activity against Pseudomonas aeruginosa PAO1 assessed as inhibition of bacterial growth incubated for 24 hrs by broth microdilution method.
The next test has as its system Klebsiella pneumoniae. Put plainly: Antibacterial activity against Klebsiella pneumoniae assessed as inhibition of bacterial growth incubated for 24 hrs by broth microdilution method.
The test system of test [2] is Pseudomonas aeruginosa. Put plainly: Antibacterial activity against Pseudomonas aeruginosa assessed as inhibition of bacterial growth incubated for 24 hrs by broth microdilution method.
In a further test the test system is Escherichia coli. Put plainly: Antibacterial activity against Escherichia coli assessed as inhibition of bacterial growth incubated for 24 hrs by broth microdilution method.

Values after ≈ are worked out from the molar mass of the structure shown. Positions of bridges follow the written chain, without caps; N, C: chain ends. Non-standard residues stand in square brackets, D forms with d. Residues, ends and D or L forms follow the SMILES beside them. *: point of attachment. X1 = CC[C@H](C)CCCCC(=O)*; Dab = NCC[C@H](N)C(=O)O Where only a bound is given, the exact number is not on record here.

For `CC(C)CCCCC(=O)N[C@@H](CCN)C(=O)N[C@H](C(=O)N[C@@H](CCN)C(=O)N[C@H]1CCNC(=O)[C@H]([C@@H](C)O)NC(=O)[C@H](CCN)NC(=O)[C@H](CCN)NC(=O)[C@H](CC(C)C)NC(=O)[C@@H](Cc2ccccc2)NC(=O)[C@H](CCN)NC1=O)[C@@H](C)OC(=O)[C@@H](N)CS`, the MIC with Acinetobacter baumannii worked out at 0.125 µg/mL (≈ 0.0967 µM); in the test on Moraxella catarrhalis it was 32 µg/mL (≈ 24.8 µM); in the test on Pseudomonas aeruginosa [1], 2 µg/mL (≈ 1.55 µM); with Klebsiella pneumoniae, 1 µg/mL (≈ 0.774 µM); in the test on Pseudomonas aeruginosa [2] it was 0.25 µg/mL (≈ 0.193 µM); in the test on Escherichia coli it was 0.25 µg/mL (≈ 0.193 µM).
Turning to `CC[C@H](C)CCCCC(=O)N[C@@H](CCN)C(=O)N[C@H](C(=O)N[C@@H](CCN)C(=O)N[C@H]1CCNC(=O)[C@H]([C@@H](C)O)NC(=O)[C@H](CCN)NC(=O)[C@H](CCN)NC(=O)[C@H](CC(C)C)NC(=O)[C@@H](Cc2ccccc2)NC(=O)[C@H](CCN)NC1=O)[C@@H](C)OC(=O)CN`, the MIC in the test with Acinetobacter baumannii was 0.125 µg/mL (≈ 0.0992 µM); in the test with Moraxella catarrhalis, above 64 µg/mL; in the test with Pseudomonas aeruginosa [1], 4 µg/mL (≈ 3.17 µM); in the test on Klebsiella pneumoniae, 0.5 µg/mL (≈ 0.397 µM); with Pseudomonas aeruginosa [2], 0.125 µg/mL (≈ 0.0992 µM); in the test on Escherichia coli, 0.25 µg/mL (≈ 0.198 µM).
Regarding `CC(C)CCCCC(=O)N[C@@H](CCN)C(=O)N[C@H](C(=O)N[C@@H](CCN)C(=O)N[C@H]1CCNC(=O)[C@H]([C@@H](C)O)NC(=O)[C@H](CCN)NC(=O)[C@H](CCN)NC(=O)[C@H](CC(C)C)NC(=O)[C@@H](Cc2ccccc2)NC(=O)[C@H](CCN)NC1=O)[C@@H](C)OC(=O)CN`, the MIC in the test with Acinetobacter baumannii is 0.06 µg/mL (≈ 0.0481 µM); in the test with Moraxella catarrhalis it was above 16 µg/mL; with Pseudomonas aeruginosa [1], 2 µg/mL (≈ 1.6 µM); in the test with Klebsiella pneumoniae it was 1 µg/mL (≈ 0.802 µM); in the test on Pseudomonas aeruginosa [2], 0.25 µg/mL (≈ 0.201 µM); in the test on Escherichia coli, 0.25 µg/mL (≈ 0.201 µM).
Take `CC[C@H](C)CCCCC(=O)N[C@@H](CCN)C(=O)N[C@H](C(=O)N[C@@H](CCN)C(=O)N[C@H]1CCNC(=O)[C@H]([C@@H](C)O)NC(=O)[C@H](CCN)NC(=O)[C@H](CCN)NC(=O)[C@H](CC(C)C)NC(=O)[C@@H](Cc2ccccc2)NC(=O)[C@H](CCN)NC1=O)[C@@H](C)OC(=O)[C@@H](N)CCC(N)=O`: the MIC in the test with Acinetobacter baumannii is 0.06 µg/mL (≈ 0.0451 µM); in the test on Moraxella catarrhalis it was above 32 µg/mL; in the test with Pseudomonas aeruginosa [1], 2 µg/mL (≈ 1.5 µM); in the test with Klebsiella pneumoniae it was 2 µg/mL (≈ 1.5 µM); with Pseudomonas aeruginosa [2] it was 0.125 µg/mL (≈ 0.0939 µM); with Escherichia coli it was 0.25 µg/mL (≈ 0.188 µM).
`CC[C@H](C)CCCCC(=O)N[C@@H](CCN)C(=O)N[C@H](C(=O)N[C@@H](CCN)C(=O)N[C@H]1CCNC(=O)[C@H]([C@@H](C)OC(=O)[C@H](C)N)NC(=O)[C@H](CCN)NC(=O)[C@H](CCN)NC(=O)[C@H](CC(C)C)NC(=O)[C@@H](Cc2ccccc2)NC(=O)[C@H](CCN)NC1=O)[C@@H](C)OC(=O)[C@H](C)N`: the MIC in the test with Pseudomonas aeruginosa [1] stood at 2 µg/mL (≈ 1.49 µM).
As for `CC[C@H](C)[C@H](N)C(=O)O[C@H](C)[C@H](NC(=O)[C@H](CCN)NC(=O)CCCCC(C)C)C(=O)N[C@@H](CCN)C(=O)N[C@H]1CCNC(=O)[C@H]([C@@H](C)O)NC(=O)[C@H](CCN)NC(=O)[C@H](CCN)NC(=O)[C@H](CC(C)C)NC(=O)[C@@H](Cc2ccccc2)NC(=O)[C@H](CCN)NC1=O`, the MIC in the test on Pseudomonas aeruginosa [1] worked out at 2 µg/mL (≈ 1.54 µM).
As for `CCCCCCCC(=O)N[C@@H](CCN)C(=O)N[C@H](C(=O)N[C@@H](CCN)C(=O)N[C@H]1CCNC(=O)[C@H](CCSC)NC(=O)[C@H](CCN)NC(=O)[C@H](CCN)NC(=O)[C@H](CC(C)C)NC(=O)[C@@H](Cc2ccccc2)NC(=O)[C@H](CCN)NC1=O)[C@@H](C)O`, the MIC in the test with Pseudomonas aeruginosa [1] is 4 µg/mL (≈ 3.28 µM).
For the molecule `CC(C)CCCCC(=O)N[C@@H](CCN)C(=O)N[C@@H](CCN)C(=O)N[C@@H](CCN)C(=O)N[C@H]1CCNC(=O)[C@H]([C@@H](C)O)NC(=O)[C@H](CCN)NC(=O)[C@H](CCN)NC(=O)[C@H](CC(C)C)NC(=O)[C@@H](Cc2ccccc2)NC(=O)[C@H](CCN)NC1=O`, the MIC in the test with Pseudomonas aeruginosa [1] came to 128 µg/mL (≈ 108 µM).
Consider `CC(C)CCCCC(=O)N[C@@H](CCN)C(=O)N[C@H](C(=O)N[C@@H](CCN)C(=O)N[C@H]1CCNC(=O)[C@H]([C@@H](C)O)NC(=O)[C@H](CCN)NC(=O)[C@H](CCN)NC(=O)[C@H](CC(C)C)NC(=O)[C@@H](Cc2ccccc2)NC(=O)[C@H](CCN)NC1=O)[C@@H](C)OC(=O)[C@@H](N)CC(N)=O`, for which the MIC in the test on Pseudomonas aeruginosa [1] was 1 µg/mL (≈ 0.767 µM).
The same measure, in the same setting: under `CC[C@H](C)CCCCC(=O)N[C@@H](CCN)C(=O)N[C@H](C(=O)N[C@@H](CCN)C(=O)N[C@H]1CCNC(=O)[C@H]([C@@H](C)O)NC(=O)[C@H](CCN)NC(=O)[C@H](CCN)NC(=O)[C@H](CC(C)C)NC(=O)[C@@H](Cc2ccccc2)NC(=O)[C@H](CCN)NC1=O)[C@@H](C)OC(=O)[C@@H](N)CO` stands 1 µg/mL (≈ 0.775 µM).
On the same count and under the same terms, for `CCCCCCCC(=O)N[C@@H](CCN)C(=O)N[C@H](C(=O)N[C@@H](CCN)C(=O)N[C@H]1CCNC(=O)[C@H](CC(=O)O)NC(=O)[C@H](CCN)NC(=O)[C@H](CCN)NC(=O)[C@H](CC(C)C)NC(=O)[C@@H](Cc2ccccc2)NC(=O)[C@H](CCN)NC1=O)[C@@H](C)O` the value was 64 µg/mL (≈ 53.2 µM); for `CC[C@H](C)CCCCC(=O)N[C@@H](CCN)C(=O)N[C@H](C(=O)N[C@@H](CCN)C(=O)N[C@H]1CCNC(=O)[C@H]([C@@H](C)O)NC(=O)[C@H](CCN)NC(=O)[C@H](CCN)NC(=O)[C@H](CC(C)C)NC(=O)[C@@H](Cc2ccccc2)NC(=O)[C@H](CCN)NC1=O)[C@@H](C)OC(=O)[C@@H](N)CC(N)=O`, 2 µg/mL (≈ 1.52 µM).
For `CCCCCCCC(=O)N[C@@H](CCN)C(=O)N[C@@H](CS)C(=O)N[C@@H](CCN)C(=O)N[C@H]1CCNC(=O)[C@H]([C@@H](C)O)NC(=O)[C@H](CCN)NC(=O)[C@H](CCN)NC(=O)[C@H](CC(C)C)NC(=O)[C@@H](Cc2ccccc2)NC(=O)[C@H](CCN)NC1=O`, the MIC in the test with Pseudomonas aeruginosa [1] stood at 8 µg/mL (≈ 6.71 µM).
For the molecule `CC[C@H](C)CCCCC(=O)N[C@@H](CCN)C(=O)N[C@H](C(=O)N[C@@H](CCN)C(=O)N[C@H]1CCNC(=O)[C@H]([C@@H](C)O)NC(=O)[C@H](CCN)NC(=O)[C@H](CCN)NC(=O)[C@H](CC(C)C)NC(=O)[C@@H](Cc2ccccc2)NC(=O)[C@H](CCN)NC1=O)[C@@H](C)O` (X1-[Dab]T[Dab][Dab][Dab][dF]L[Dab][Dab]T; lactam 4-C), the MIC with Pseudomonas aeruginosa [1] came to 2 µg/mL (≈ 1.66 µM).
Take `CC[C@H](C)CCCCC(=O)N[C@@H](CCN)C(=O)N[C@H](C(=O)N[C@@H](CCN)C(=O)N[C@H]1CCNC(=O)[C@H]([C@@H](C)O)NC(=O)[C@H](CCN)NC(=O)[C@H](CCN)NC(=O)[C@H](CC(C)C)NC(=O)[C@@H](Cc2ccccc2)NC(=O)[C@H](CCN)NC1=O)[C@@H](C)OC(=O)[C@@H](N)CS`: the MIC in the test with Pseudomonas aeruginosa [1] worked out at 2 µg/mL (≈ 1.53 µM).
On the same count and under the same terms, for `CC[C@H](C)CCCCC(=O)N[C@@H](CCN)C(=O)N[C@H](C(=O)N[C@@H](CCN)C(=O)N[C@H]1CCNC(=O)[C@H]([C@@H](C)O)NC(=O)[C@H](CCN)NC(=O)[C@H](CCN)NC(=O)[C@H](CC(C)C)NC(=O)[C@@H](Cc2ccccc2)NC(=O)[C@H](CCN)NC1=O)[C@@H](C)OC(=O)[C@@H](N)Cc1c[nH]cn1` the value was 2 µg/mL (≈ 1.49 µM).
Turning to `CC(C)CCCCC(=O)N[C@@H](CCN)C(=O)N[C@H](C(=O)N[C@@H](CCN)C(=O)N[C@H]1CCNC(=O)[C@H]([C@@H](C)OC(=O)[C@H](C)N)NC(=O)[C@H](CCN)NC(=O)[C@H](CCN)NC(=O)[C@H](CC(C)C)NC(=O)[C@@H](Cc2ccccc2)NC(=O)[C@H](CCN)NC1=O)[C@@H](C)OC(=O)[C@H](C)N`, the MIC in the test with Pseudomonas aeruginosa [1] was found to be 2 µg/mL (≈ 1.5 µM).
Take `CC[C@H](C)CCCCC(=O)N[C@@H](CCN)C(=O)N[C@H](C(=O)N[C@@H](CCN)C(=O)N[C@H]1CCNC(=O)[C@H]([C@@H](C)O)NC(=O)[C@H](CCN)NC(=O)[C@H](CCN)NC(=O)[C@H](CC(C)C)NC(=O)[C@@H](Cc2ccccc2)NC(=O)[C@H](CCN)NC1=O)[C@@H](C)OC(=O)[C@@H](N)CCCNC(=N)N`: the MIC with Pseudomonas aeruginosa [1] stood at 2 µg/mL (≈ 1.47 µM).
